Laboratory results published in patent US5219741A, “Method of making L-proline using an N-acyl-L-protine acylase” (priority 1990, dated 1993).
Entries after “also recorded” stand apart in the source; their conditions may differ. Like-named read-outs stand apart in the source and are kept apart here.

What was measured:
Assay type in all cases: biochemical, Comamonas testosteroni DSM 5416
N-acyl-L-proline acylase [1] = assay: Stereospecificity of hydrolysis of N-acetyl-D,L-proline; conditions: for L-proline (mmol/l) produced: substrate 10 mmol/l, two hours at 30° C., pH 7.0
Procedure: The hydrolysis of N-acyl-L-proline, N-acetyl-D,L-proline and N-acetyl-D-proline was determined in the following reaction mixture:
The reaction mixture was incubated for two hours at 30° C. and the L-proline produced was determined by amino acid analysis as in Example 10.

N-acyl-L-proline acylase [2] = assay: Substrate specificity: hydrolysis of N-acyl amino acids and proline derivatives
Procedure: The activity of acylase was determined with various N-acetyl-L-amino acids and N-chloroacetyl-L-amino acids in a reaction batch with the following composition:
The reaction temperature was 30° C. and the incubation time 15 minutes to 24 hours. 0.2 ml samples of the reaction batch in each instance were mixed at different times with 0.2 ml 10% (w/v) trichloroacetic acid and the denatured protein centrifuged off for 10 minutes at 11,000 rpms in a table centrifuge. The supernatant was diluted with a 0.1M Na citrate buffer pH 2.2 with 25% (v/v) 2.2-thiodiethanol and 0.1% (v/v) phenol 1:5 and 1:50 respectively. The amino acids released were quantitatively detected by an amino-acid analyzer LC 5001 of the firm Biotronic, Maintal, Federal Republic of Germany. In Table 16, the substrates marked with * and the corresponding products were quantified by means of HPLC.
The activity of the acylase was determined with various proline derivatives as under a).

N-acyl-L-proline acylase [3] = conditions: for Activity (%): no agent = 100
Procedure: The enzymatic reaction was interrupted by pipetting 50 μl of the enzyme sample into 1.25 ml 100% acetic acid. Subsequently, 0.45 ml 0.1M tris-HCl buffer pH 7.0 and 1.25 ml ninhydrin reagent (3 g ninhydrin dissolved by heating in a mixture of 60 ml 100% acetic acid and 40 ml 6M phosphoric acid) were added. The ninhydrin reagent was freshly prepared daily. The test tubes were loosely closed with screw-on caps, incubated 30 minutes at 100° C. and subsequently cooled down in an ice bath.
The L-proline, liberated by the enzymatic hydrolysis, forms a red dye with ninhydrin at 100° C. The absorption of the red dye was measured in a spectrophotometer at 480 nm relative to a control batch without crude extract (=substrate blank). The concentration of the L-proline produced was determined using a straight calibration line with L-proline in a range of 5 to 100 nmoles per 50 μl specimen. The enzyme activity was indicated in international units; thus, one unit (U) corresponded to an amount of 1 μmole L-proline produced per minute.
The influence of various chemical agents as well as metal cations and anions on the reaction speed of the hydrolytic splitting of N-acetyl-L-proline was determined at 30° C. in a reaction batch with the following composition: […]
The enzyme was pre-incubated for 10 minutes at 30° C. with the compound before the addition of substrate to start the reaction.
The enzyme was pre-incubated for 10 minutes at 30° C. with the agent before the substrate was added to start the reaction.
The enzyme was pre-incubated 10 minutes at 30° C. with the agent before the substrate was added to start the reaction. The concentration of the anions was 10 mM in each instance.

[4] = tested on: 1,10-phenanthroline-inactivated acylase (apoenzyme); assay: Influence of cations on the 1,10-phenanthroline-inactivated acylase
Procedure: FPLC/Mono Q purified enzyme was incubated for 24 hours at 4° C. in the presence of 1 mM 1,10-phenanthroline. Subsequently, enzyme and the chelating agent 1,10-phenanthroline were separated by gel filtration via Sephadex G-25M (PD-10, firm Pharmacia/LKB, Uppsala, Sweden). The enzyme-containing fractions were combined and the activity determined without and in the presence of various cations (1 mM).

[5] = metal cation salt 1 mM, native enzyme
[6] = metal cation salt 10 mM, native enzyme
[7] = inactivated enzyme after gel filtration + cation 1 mM, native enzyme = 100, no agent = 21

For `CC(=O)N1CCCC1C(=O)O` (racemic) [N-acetyl-D,L-proline], the “L-proline (mmol/l) produced” value (N-acyl-L-proline acylase [1]) was 4.82 mmol/L.

With `CC(=O)N1CCC[C@@H]1C(=O)O` [N-acetyl-D-proline] the “Hydrolysis by the acylase (in words)” value (N-acyl-L-proline acylase [2]) was “not hydrolized”, the “Relative Activity (%)” value (N-acyl-L-proline acylase [2]; proline derivatives, 30° C., pH 7.0, N-acetyl-L-proline = 100%) was 0% and the “Stereospecific hydrolysis (in words)” value (N-acyl-L-proline acylase [1]) was “not”. The “L-proline (mmol/l) produced” value (N-acyl-L-proline acylase [1]) was < 0.01 mmol/L.

`[Cl][Mn][Cl]` [MnCl2] was tested, and the “Activity (%)” value (N-acyl-L-proline acylase [3]; [5]) was 104%, the “Activity (%)” value (N-acyl-L-proline acylase [3]; [6]) was 103% and the “Activity (%)” value [4, 7] was 23%.

For `[Cl-].[Cl-].[Mg+2]` [MgCl2], the “Activity (%)” value (N-acyl-L-proline acylase [3]; [5]) was 106%, the “Activity (%)” value (N-acyl-L-proline acylase [3]; [6]) was 99% and the “Activity (%)” value [4, 7] was 25%.

`c1cnc2c(c1)ccc1cccnc12` [1,10 phenanthroline, 1,10-phenanthroline] was tested, and the “Activity (%)” value (N-acyl-L-proline acylase [3]; chemical agent 1 mM, 10 min pre-incubation at 30° C.) was 27%, the “Activity (%)” value (N-acyl-L-proline acylase [3]; chemical agent 10 mM, 10 min pre-incubation at 30° C.) was 1% and the “Influence on the acylase activity (in words)” value (N-acyl-L-proline acylase [3]; native enzyme) was “inhibiting action; also recorded: significantly inhibit”. For the same compound, the “Activity (%)” value ([4]; enzyme incubated 24 hours at 4° C. with 1 mM 1,10-phenanthroline, before gel filtration, native enzyme = 100) was 2%.
